Test results from publication PMC6407917, “Identification of GSK3186899/DDD853651 as a Preclinical Development Candidate for the Treatment of Visceral Leishmaniasis” (Journal of Medicinal Chemistry, 2018).
Values belong to the molecule of their own block, whether it stands above or below them.

What was measured:
AURKB = AURKB (Homo sapiens, UniProt Q96GD4); assay: biochemical; parameters: species or system HEK293/K-562/placenta mixed human extract; Kinobeads chemoproteomic competition binding, quantified by TMT LC-MS/MS, dose response up to 20 uM
Sequence of AURKB (Q96GD4 whole entry): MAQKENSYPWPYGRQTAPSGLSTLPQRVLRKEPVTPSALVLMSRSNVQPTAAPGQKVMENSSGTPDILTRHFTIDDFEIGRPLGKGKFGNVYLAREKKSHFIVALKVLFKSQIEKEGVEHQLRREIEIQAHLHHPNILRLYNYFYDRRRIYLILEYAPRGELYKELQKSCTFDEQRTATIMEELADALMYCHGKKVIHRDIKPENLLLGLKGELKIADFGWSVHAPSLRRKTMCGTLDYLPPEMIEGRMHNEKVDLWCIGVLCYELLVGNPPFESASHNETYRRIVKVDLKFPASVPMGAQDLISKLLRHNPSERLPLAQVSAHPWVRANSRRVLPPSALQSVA

AURKC = AURKC (Homo sapiens, UniProt Q9UQB9); assay: biochemical; parameters: species or system HEK293/K-562/placenta mixed human extract; Kinobeads chemoproteomic competition binding, quantified by TMT LC-MS/MS, dose response up to 20 uM
BMPR1A = BMPR1A (Homo sapiens, UniProt P36894); assay: biochemical; parameters: species or system HEK293/K-562/placenta mixed human extract; Kinobeads chemoproteomic competition binding, quantified by TMT LC-MS/MS, dose response up to 20 uM
CAMK2B = CAMK2B (Homo sapiens, UniProt Q13554); assay: biochemical; parameters: species or system HEK293/K-562/placenta mixed human extract; Kinobeads chemoproteomic competition binding, quantified by TMT LC-MS/MS, dose response up to 20 uM
Sequence of CAMK2B (Q13554 whole entry): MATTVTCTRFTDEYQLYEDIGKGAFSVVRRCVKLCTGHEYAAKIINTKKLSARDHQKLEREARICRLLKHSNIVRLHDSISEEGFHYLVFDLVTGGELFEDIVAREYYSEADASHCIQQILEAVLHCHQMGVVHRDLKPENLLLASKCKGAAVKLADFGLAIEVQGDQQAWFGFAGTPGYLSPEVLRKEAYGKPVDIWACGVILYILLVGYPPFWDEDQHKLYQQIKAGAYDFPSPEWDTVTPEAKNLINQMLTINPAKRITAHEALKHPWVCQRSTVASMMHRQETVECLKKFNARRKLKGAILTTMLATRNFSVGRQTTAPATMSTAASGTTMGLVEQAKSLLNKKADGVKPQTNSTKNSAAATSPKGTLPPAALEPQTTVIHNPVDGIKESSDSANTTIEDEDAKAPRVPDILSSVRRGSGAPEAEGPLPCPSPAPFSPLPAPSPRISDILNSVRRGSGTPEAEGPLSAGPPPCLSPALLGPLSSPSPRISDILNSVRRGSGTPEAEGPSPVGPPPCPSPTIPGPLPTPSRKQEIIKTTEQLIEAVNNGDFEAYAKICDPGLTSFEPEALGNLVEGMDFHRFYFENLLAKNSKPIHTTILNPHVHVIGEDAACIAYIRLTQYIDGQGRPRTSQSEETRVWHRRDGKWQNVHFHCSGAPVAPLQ

DAPK3 = DAPK3 (Homo sapiens, UniProt O43293); assay: biochemical; parameters: species or system HEK293/K-562/placenta mixed human extract; Kinobeads chemoproteomic competition binding, quantified by TMT LC-MS/MS, dose response up to 20 uM
Sequence of DAPK3 (O43293 whole entry): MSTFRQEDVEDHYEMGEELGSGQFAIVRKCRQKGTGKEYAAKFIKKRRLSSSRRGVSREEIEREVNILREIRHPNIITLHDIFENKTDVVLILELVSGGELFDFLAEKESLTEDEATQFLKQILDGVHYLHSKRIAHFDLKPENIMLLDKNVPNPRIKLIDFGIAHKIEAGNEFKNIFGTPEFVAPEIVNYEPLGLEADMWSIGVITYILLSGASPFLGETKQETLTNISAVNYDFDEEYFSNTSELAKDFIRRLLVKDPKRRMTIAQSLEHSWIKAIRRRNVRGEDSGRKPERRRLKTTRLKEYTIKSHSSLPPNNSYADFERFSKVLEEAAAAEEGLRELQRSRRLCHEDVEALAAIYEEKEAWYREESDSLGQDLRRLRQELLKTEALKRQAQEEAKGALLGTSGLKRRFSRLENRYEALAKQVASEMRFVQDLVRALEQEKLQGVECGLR

EGFR = EGFR (Homo sapiens, UniProt P00533); assay: biochemical; parameters: species or system HEK293/K-562/placenta mixed human extract; Kinobeads chemoproteomic competition binding, quantified by TMT LC-MS/MS, dose response up to 20 uM
Sequence of EGFR (P00533 whole entry): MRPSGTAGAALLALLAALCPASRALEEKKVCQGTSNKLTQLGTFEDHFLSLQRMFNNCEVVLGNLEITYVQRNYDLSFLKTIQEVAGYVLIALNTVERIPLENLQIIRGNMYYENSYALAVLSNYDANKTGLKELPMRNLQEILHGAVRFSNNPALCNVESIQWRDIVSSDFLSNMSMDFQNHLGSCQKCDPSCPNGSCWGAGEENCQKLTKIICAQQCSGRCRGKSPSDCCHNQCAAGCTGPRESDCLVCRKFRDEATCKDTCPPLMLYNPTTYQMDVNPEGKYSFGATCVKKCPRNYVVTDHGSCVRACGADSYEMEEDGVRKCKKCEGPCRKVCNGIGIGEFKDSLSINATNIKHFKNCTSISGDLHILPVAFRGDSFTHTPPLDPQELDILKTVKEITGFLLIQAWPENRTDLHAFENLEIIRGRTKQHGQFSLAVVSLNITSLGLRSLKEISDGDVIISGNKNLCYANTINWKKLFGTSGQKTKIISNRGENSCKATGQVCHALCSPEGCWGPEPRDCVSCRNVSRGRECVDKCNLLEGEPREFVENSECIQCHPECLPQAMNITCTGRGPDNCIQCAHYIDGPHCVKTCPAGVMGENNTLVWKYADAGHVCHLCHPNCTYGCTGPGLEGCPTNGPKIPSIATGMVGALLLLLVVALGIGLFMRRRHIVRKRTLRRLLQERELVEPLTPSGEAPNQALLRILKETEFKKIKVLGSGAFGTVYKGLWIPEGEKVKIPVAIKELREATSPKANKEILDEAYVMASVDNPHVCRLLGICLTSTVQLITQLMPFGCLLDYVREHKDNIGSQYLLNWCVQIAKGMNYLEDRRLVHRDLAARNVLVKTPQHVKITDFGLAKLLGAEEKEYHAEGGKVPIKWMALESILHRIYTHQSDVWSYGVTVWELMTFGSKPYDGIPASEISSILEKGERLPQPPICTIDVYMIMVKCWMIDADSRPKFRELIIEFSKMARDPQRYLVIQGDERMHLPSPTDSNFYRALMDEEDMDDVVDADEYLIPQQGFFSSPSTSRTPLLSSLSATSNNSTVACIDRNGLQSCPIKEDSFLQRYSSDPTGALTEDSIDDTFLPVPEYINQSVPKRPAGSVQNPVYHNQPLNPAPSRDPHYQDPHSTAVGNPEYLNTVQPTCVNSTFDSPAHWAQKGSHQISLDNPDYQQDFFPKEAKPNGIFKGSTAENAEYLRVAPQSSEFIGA

EPHA5 = EPHA5 (Homo sapiens, UniProt P54756); assay: biochemical; parameters: species or system HEK293/K-562/placenta mixed human extract; Kinobeads chemoproteomic competition binding, quantified by TMT LC-MS/MS, dose response up to 20 uM
FN3KRP = FN3KRP (Homo sapiens, UniProt Q9HA64); assay: biochemical; parameters: species or system HEK293/K-562/placenta mixed human extract; Kinobeads chemoproteomic competition binding, quantified by TMT LC-MS/MS, dose response up to 20 uM
MAPK7 = MAPK7 (Homo sapiens, UniProt Q13164); assay: biochemical; parameters: species or system HEK293/K-562/placenta mixed human extract; Kinobeads chemoproteomic competition binding, quantified by TMT LC-MS/MS, dose response up to 20 uM
MARK1 = MARK1 (Homo sapiens, UniProt Q9P0L2); assay: biochemical; parameters: species or system HEK293/K-562/placenta mixed human extract; Kinobeads chemoproteomic competition binding, quantified by TMT LC-MS/MS, dose response up to 20 uM
Sequence of MARK1 (Q9P0L2 whole entry): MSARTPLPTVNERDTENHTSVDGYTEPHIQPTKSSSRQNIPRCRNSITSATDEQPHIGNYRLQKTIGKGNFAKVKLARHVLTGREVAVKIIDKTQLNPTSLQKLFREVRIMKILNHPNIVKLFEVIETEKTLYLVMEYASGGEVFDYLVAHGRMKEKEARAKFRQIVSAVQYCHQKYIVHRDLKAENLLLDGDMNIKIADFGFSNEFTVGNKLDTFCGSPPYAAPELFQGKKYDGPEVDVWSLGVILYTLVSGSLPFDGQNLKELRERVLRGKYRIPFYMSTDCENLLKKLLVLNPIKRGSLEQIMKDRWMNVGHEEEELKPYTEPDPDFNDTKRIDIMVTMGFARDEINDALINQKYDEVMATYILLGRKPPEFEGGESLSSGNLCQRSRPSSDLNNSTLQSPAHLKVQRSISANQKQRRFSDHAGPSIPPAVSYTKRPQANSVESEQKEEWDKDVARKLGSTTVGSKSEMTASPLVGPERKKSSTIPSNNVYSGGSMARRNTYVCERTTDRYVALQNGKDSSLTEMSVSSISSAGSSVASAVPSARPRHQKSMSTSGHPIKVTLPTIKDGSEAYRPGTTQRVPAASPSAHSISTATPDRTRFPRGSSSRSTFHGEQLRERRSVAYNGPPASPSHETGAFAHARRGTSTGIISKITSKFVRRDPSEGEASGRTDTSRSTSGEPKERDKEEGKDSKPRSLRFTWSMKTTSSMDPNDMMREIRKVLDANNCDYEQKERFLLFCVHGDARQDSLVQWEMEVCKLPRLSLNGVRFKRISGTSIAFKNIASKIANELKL

PIP4K2B = PIP4K2B (Homo sapiens, UniProt P78356); assay: biochemical; parameters: species or system HEK293/K-562/placenta mixed human extract; Kinobeads chemoproteomic competition binding, quantified by TMT LC-MS/MS, dose response up to 20 uM
PKN1 = PKN1 (Homo sapiens, UniProt Q16512); assay: biochemical; parameters: species or system HEK293/K-562/placenta mixed human extract; Kinobeads chemoproteomic competition binding, quantified by TMT LC-MS/MS, dose response up to 20 uM
PRKCI = PRKCI (Homo sapiens, UniProt P41743); assay: biochemical; parameters: species or system HEK293/K-562/placenta mixed human extract; Kinobeads chemoproteomic competition binding, quantified by TMT LC-MS/MS, dose response up to 20 uM
Sequence of PRKCI (P41743 whole entry): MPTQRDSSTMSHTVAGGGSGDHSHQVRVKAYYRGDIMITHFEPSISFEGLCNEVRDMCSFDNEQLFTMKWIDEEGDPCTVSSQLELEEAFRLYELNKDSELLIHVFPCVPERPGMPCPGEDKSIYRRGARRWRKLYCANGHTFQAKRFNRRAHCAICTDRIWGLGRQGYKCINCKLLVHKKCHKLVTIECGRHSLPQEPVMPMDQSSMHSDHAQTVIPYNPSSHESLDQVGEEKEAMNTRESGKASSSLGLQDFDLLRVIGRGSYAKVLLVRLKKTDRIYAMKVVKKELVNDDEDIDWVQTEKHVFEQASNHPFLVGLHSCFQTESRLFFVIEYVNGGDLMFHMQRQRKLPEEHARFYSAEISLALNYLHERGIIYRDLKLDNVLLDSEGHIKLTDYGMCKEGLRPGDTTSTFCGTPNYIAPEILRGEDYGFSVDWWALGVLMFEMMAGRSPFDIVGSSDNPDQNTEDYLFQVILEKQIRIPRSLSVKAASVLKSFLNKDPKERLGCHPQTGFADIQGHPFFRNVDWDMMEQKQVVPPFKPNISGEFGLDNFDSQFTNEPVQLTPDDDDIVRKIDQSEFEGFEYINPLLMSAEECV

STK17A = STK17A (Homo sapiens, UniProt Q9UEE5); assay: biochemical; parameters: species or system HEK293/K-562/placenta mixed human extract; Kinobeads chemoproteomic competition binding, quantified by TMT LC-MS/MS, dose response up to 20 uM
STK4 = STK4 (Homo sapiens, UniProt Q13043); assay: biochemical; parameters: species or system HEK293/K-562/placenta mixed human extract; Kinobeads chemoproteomic competition binding, quantified by TMT LC-MS/MS, dose response up to 20 uM
SYK = SYK (Homo sapiens, UniProt P43405); assay: biochemical; parameters: species or system HEK293/K-562/placenta mixed human extract; Kinobeads chemoproteomic competition binding, quantified by TMT LC-MS/MS, dose response up to 20 uM
TAOK3 = TAOK3 (Homo sapiens, UniProt Q9H2K8); assay: biochemical; parameters: species or system HEK293/K-562/placenta mixed human extract; Kinobeads chemoproteomic competition binding, quantified by TMT LC-MS/MS, dose response up to 20 uM
TESK2 = TESK2 (Homo sapiens, UniProt Q96S53); assay: biochemical; parameters: species or system HEK293/K-562/placenta mixed human extract; Kinobeads chemoproteomic competition binding, quantified by TMT LC-MS/MS, dose response up to 20 uM
YES1 = YES1 (Homo sapiens, UniProt P07947); assay: biochemical; parameters: species or system HEK293/K-562/placenta mixed human extract; Kinobeads chemoproteomic competition binding, quantified by TMT LC-MS/MS, dose response up to 20 uM
Sequence of YES1 (P07947 whole entry): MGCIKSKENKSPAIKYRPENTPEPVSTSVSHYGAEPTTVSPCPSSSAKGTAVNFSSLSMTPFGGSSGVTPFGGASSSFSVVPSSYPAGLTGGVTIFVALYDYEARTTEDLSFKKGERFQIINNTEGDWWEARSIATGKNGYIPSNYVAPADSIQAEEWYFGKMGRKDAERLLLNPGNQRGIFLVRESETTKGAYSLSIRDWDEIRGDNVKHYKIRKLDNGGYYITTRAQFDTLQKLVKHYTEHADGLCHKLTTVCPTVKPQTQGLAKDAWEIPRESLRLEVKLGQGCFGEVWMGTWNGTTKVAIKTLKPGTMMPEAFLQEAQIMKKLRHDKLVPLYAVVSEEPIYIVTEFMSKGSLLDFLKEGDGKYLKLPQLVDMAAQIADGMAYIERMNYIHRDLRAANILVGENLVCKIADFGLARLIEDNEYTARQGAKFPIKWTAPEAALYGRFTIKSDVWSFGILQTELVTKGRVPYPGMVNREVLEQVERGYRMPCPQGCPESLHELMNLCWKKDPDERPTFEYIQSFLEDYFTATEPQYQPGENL

hERG = biological target: T1, hERG (Homo sapiens, UniProt Q12809); assay: in vitro hERG assay, standard protocol; format: cell-based; conditions: read-out: 1
T1 construct: gene KCNH2; in vitro hERG assay, standard protocol
Source text: in vitro hERG assay, standard protocol on hERG

Cdk4 = Cdk4 (Homo sapiens, UniProt P11802); conditions: mixed human cell/tissue extract; maximum concentration 20 μM
Sequence of Cdk4 (P11802 2-303): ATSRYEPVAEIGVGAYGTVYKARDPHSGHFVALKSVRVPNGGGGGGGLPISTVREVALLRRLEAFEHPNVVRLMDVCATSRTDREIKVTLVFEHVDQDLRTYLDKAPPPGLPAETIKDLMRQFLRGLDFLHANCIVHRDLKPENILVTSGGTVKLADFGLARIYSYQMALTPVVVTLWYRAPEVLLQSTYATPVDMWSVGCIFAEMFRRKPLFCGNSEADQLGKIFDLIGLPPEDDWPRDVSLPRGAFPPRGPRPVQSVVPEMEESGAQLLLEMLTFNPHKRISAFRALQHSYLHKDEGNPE

- IC50 (AURKB): ≥ 20 µM
- IC50 (AURKC): ≥ 20 µM
- IC50 (BMPR1A): ≥ 20 µM
- IC50 (CAMK2B): ≥ 20 µM
- IC50 (DAPK3): ≥ 20 µM
- IC50 (EGFR): ≥ 20 µM
- IC50 (EPHA5): ≥ 20 µM
- IC50 (FN3KRP): ≥ 20 µM
- IC50 (MAPK7): ≥ 20 µM
- IC50 (MARK1): ≥ 20 µM
- IC50 (PIP4K2B): 9.4 µM
- IC50 (PKN1): ≥ 20 µM
- IC50 (PRKCI): ≥ 20 µM
- IC50 (STK17A): ≥ 20 µM
- IC50 (STK4): ≥ 20 µM
- IC50 (SYK): ≥ 20 µM
- IC50 (TAOK3): 0.93 µM
- IC50 (TESK2): ≥ 20 µM
- IC50 (YES1): ≥ 20 µM
SMILES: COc1ccccc1-c1n[nH]c2nc(N[C@H]3CC[C@H](NS(=O)(=O)CCC(F)(F)F)CC3)nc(OC)c12 [compound 31, 3,3,3-Trifluoro-N-(trans-4-((4-methoxy-3-(2-methoxyphenyl)-1H-pyrazolo[3,4-d]pyrimidin-6-yl)amino)cyclohexyl)propane-1-sulfonamide]

SMILES: COc1nc(N[C@H]2CC[C@H](NS(=O)(=O)CC(C)C)CC2)nc2[nH]nc(N3CCOC[C@H]3C)c12 [compound 39, N-(trans-4-((4-Methoxy-3-((R)-3-methylmorpholino)-1H-pyrazolo[3,4-d]pyrimidin-6-yl)amino)cyclohexyl)-2-methylpropane-1-sulfonamide]
- IC50 (hERG): > 30 µM
- IC50 (Cdk4): > 20 µM
